Measured values from patent US20100047327A1, “Adjuvant for Transdermal or Transmucosal Administration and Pharmaceutical Preparation Containing the Same” (priority 2007, published 2010).

Key:
[1] = test system: MHC Class II molecule of the lymph cell; assay: Expression of MHC Class II molecule of lymph cells by flow cytometry after transdermal administration of adjuvant; format: in vivo, BALB/c mouse; conditions: FIG. 1; for number of the lymph cells expressing an MHC Class II molecule: 50 μL of acetone solution (50%) applied transdermally to shaved abdomen, lymph node five days later
[2] = Skin irritation score, intracutaneous versus transdermal administration; format: in vivo, BALB/c mouse; design: Skin irritation score Intracutaneous administration: key to the marks not given beside the values; conditions: for Skin irritation score Transdermal administration: 50 μL of acetone solution (50%) applied transdermally
[3] = test system: OVA specific IgG antibody; assay: OVA specific IgG antibody titer by ELISA, intracutaneous OVA plus transdermal adjuvant; format: in vivo, BALB/c mouse; conditions: for Antibody titer (×10^4): OVA 10 μg/head intracutaneous, then 25 μL adjuvant applied transdermally, dosing at 0, 2, 4 weeks, data after five weeks; for immune response of the antigen IgG: intracutaneous OVA plus transdermal adjuvant on intact skin, in words
Description: OVA (an antigen: Ovalbumin, Sigma Company) was prepared by dissolving it in physiological saline to give 10 μg/head, and to the OVA alone group, 25 μL of OVA aqueous solution was administered intracutaneously. To the group in which various kinds of adjuvants (lauryl alcohol, oleyl alcohol, isostearyl alcohol, octyl dodecanol, polyethylene glycol monolaurate and Freund complete adjuvant (FCA)) were used in combination, immediately after OVA solution was administered intracutaneously, 25 μL of each adjuvant solution was administered (applied) transdermally on the abdominal skin surface. Administration was carried out 0, 2 and 4 weeks later, and blood collection was carried out 2, 4 and 5 weeks later, and OVA specific IgG antibody titer after 2, 4 and 5 weeks was measured by ELISA.

[4] = test system: OVA specific IgG antibody; assay: OVA specific IgG antibody titer by ELISA, OVA/LA emulsion with microneedle, skin abrading or iontophoresis; format: in vivo, BALB/c mouse; conditions: FIG. 2
Description: OVA was prepared to give 100 μg/head, and to the OVA alone group, OVA aqueous solution was applied, and in the group in which lauryl alcohol (LA) was used in combination, the solution in which OVA solution, LA and Tween 20 (emulsifier) was mixed in the ratio of 1:1:0.01 which was emulsified was prepared and used. In the microneedle application group, 1 cm^2 of a microneedle (needle length: about 200 μm, 400 needles/cm^2) was punctured to abdominal skin that had been shaved beforehand, thereafter 50 μL of the above-mentioned emulsion solution was applied immediately. In addition, in skin abrading treatment group, skin was abraded five times using 3M RED Dot™ 2236 instead of a microneedle, thereafter 50 μL of the emulsion solution was applied. In iontophoresis application group, 50 μL of the emulsion solution was applied to shaved abdominal skin, thereafter an iontophoresis preparation (a non-woven fabric preparation: Ag, Ag/AgCl 1 cm^2) in which physiological saline was impregnated to the non-woven fabric was affixed in the applied part, and a direct current (0.4 mA/patch) was applied for one hour. Administration was carried out 0, 2 and 4 weeks later, and blood collection was carried out 2, 4 and 5 weeks later, and OVA specific IgG antibody titers were measured by ELISA.

[5] = test system: OVA specific IgG antibody; assay: OVA specific IgG antibody titer, antigen-coated microneedle after lauryl alcohol applied to skin; format: in vivo, hairless rat; conditions: LA applied to skin before puncture with OVA-coated microneedle (2 mg/patch, two hours); FIG. 3
Description: OVA was prepared in the abdomen of the male hairless rat of seven to eight weeks old to give 2 mg/patch, and in the microneedle group, the needle part of the microneedle was coated with an antigen and 5% polyvinyl alcohol liquid, and physiological saline was dropped on the skin side, and punctured for two hours. In addition, in microneedle+lauryl alcohol group, lauryl alcohol was applied to skin beforehand, physiological saline was dropped on the skin side, and the needle of the microneedle coated with the above-described antigen and 5% polyvinyl alcohol liquid was punctured for two hours. Administration was carried out 0, 2 and 4 weeks later, and blood collection was carried out 2, 4 and 5 weeks later, and OVA specific IgG antibody titers were measured by ELISA.

[6] = test system: OVA specific IgG antibody; assay: OVA specific IgG antibody titer, microneedle coated with antigen emulsion; format: in vivo, hairless rat; conditions: microneedle coated with emulsion antigen solution:oil or alcohol:Tween 80 1:1:0.01, OVA 2 mg/patch, two hours; FIG. 4
Description: OVA was prepared in the abdomen of the male hairless rat of seven to eight weeks old to give 2 mg/patch, and in the microneedle (OVA+5% polyvinyl alcohol) group, the needle part of the microneedle was coated with an antigen and 5% polyvinyl alcohol liquid [mixed in antigen solution:10% polyvinyl alcohol=1:1], and punctured for two hours. In addition, in microneedle (OVA+olive oil) or (OVA+lauryl alcohol) group, emulsion [antigen solution:olive oil or lauryl alcohol:surfactant (Tween 80)=1:1:0.01] was coated on the needle of the microneedle and punctured it for two hours. Administration was carried out 0, 2 and 4 weeks later, and blood collection was carried out 2, 4 and 5 weeks later, and OVA specific IgG antibody titers were measured by ELISA.

[7] = test system: OVA specific IgG antibody; assay: as above; format: in vivo, BALB/c mouse; conditions: microneedle coated with emulsion antigen solution:alcohol:Tween 80 1:1:0.01, OVA 0.1 mg/patch, two hours; FIG. 5
Description: In addition, in microneedle (OVA+lauryl alcohol or OVA+oleyl alcohol) group, emulsion [antigen solution:lauryl alcohol or oleyl alcohol:surfactant (Tween 80)=1:1:0.01] was coated on the needle of the microneedle and punctured it for two hours. Administration was carried out 0, 2 and 4 weeks later, and blood collection was carried out 2, 4 and 5 weeks later, and OVA specific IgG antibody titers were measured by ELISA.

OVA = assay: Antibody titer after oral mucosal administration of OVA plus LA emulsion; format: in vivo, BALB/c mouse; conditions: OVA 2500 μg/head, LA groups (20) and (50), boost after one week, blood after two weeks; FIG. 7
influenza H3N2 = assay: Antibody titer after transnasal administration of influenza H3N2 antigen plus LA; conditions: influenza H3N2 1 μg/head, antigen solution:LA:Tween 80 9:1:0.05; FIG. 6
Description: To a male BALB/c mouse of seven to eight weeks old, under inhalation anesthesia (Sevofrane) with matching with breathing, 50 μL of antigen (influenza H3N2 (Biogenesis company): 1 μg/head) was administered to a nose by dripping (transnasal (antigen)). The antigen+LA, [mixed in antigen solution:LA:surfactant (Tween 80)=9:1:0.05] was administered to a nose by dripping (transnasal (antigen+LA)).
In addition, in the intracutaneous treatment group, the abdomen was shaved under Nembutal anesthesia, 50 mL of antigen (influenza H3N2: 0.07 μg/head) was administered intracutaneously (intracutaneous (antigen)). The antigen+LA, [mixed in antigen solution:LA:surfactant (Tween 80)=1:1:0.01] was administered intracutaneously (intracutaneous (antigen+LA)). Boost was made in the same condition 2 and 4 weeks after the first time administration, and blood was collected from fundus after 2, 4 and 5 weeks and antibody titers were measured.

Molecule | number of the lymph cells expressing an MHC Class II molecule [1] | Skin irritation score Transdermal administration [2] | Antibody titer (×10^4) [3] | also measured
CC(C)CCCCCCCCCCCCCCCO [Isostearyl alcohol, isostearyl alcohol] | remarkable increase | not detected | 1.3 ×10^4 | –
CCCCCCCCCCCCO [Lauryl alcohol, lauryl alcohol] | remarkable increase | not detected | 2.1 ×10^4 | adjuvant effect (MHC Class II expression), comparison among adjuvants ([1]; transdermal administration): most remarkable; immune response of the antigen IgG [3]: highest immune response; antigen specific IgG, iontophoresis (IP+LA) ([4]; OVA 100 μg/head, OVA:LA:Tween 20 1:1:0.01 emulsion, 0.4 mA/patch for one hour, four weeks later): highest immune response; antigen specific IgG, skin abrading pre-treatment (abrading+LA) ([4]; OVA 100 μg/head, emulsion applied after abrading, four weeks later): high immune response; antigen specific IgG, microneedle (microneedle+LA) ([4]; OVA 100 μg/head, emulsion applied after microneedle puncture, four weeks later): high immune response; antibody titer compared to antigen administered alone ([4]; lauryl alcohol used together with OVA): significant increase; OVA specific IgG antibody titer [5]: remarkably increased; OVA specific IgG antibody titer [6]: remarkably increased; OVA specific IgG antibody titer [7]: remarkably increased; antibody titer, oral mucosal administration (OVA): increase of the antibody titer was observed depending on the LA concentration; antibody titer, transnasal (antigen+LA) versus antigen alone (influenza H3N2): increase of the antibody titer was observed
CCCCCCCCCCC(CO)CCCCCCCC (stereo not drawn) [Octyl dodecanol, octyl dodecanol] | – | not detected | 0.6 ×10^4 | –
CCCCCCCC/C=C\CCCCCCCCO [Oleyl alcohol, oleyl alcohol] | remarkable increase | – | 2.1 ×10^4 | Skin irritation score Intracutaneous administration ([2]; mouse, in vivo): +++; immune response of the antigen IgG [3]: highest immune response; OVA specific IgG antibody titer [7]: remarkably increased
CCCCCCCC/C=C\CCCCCCCC(=O)O [oleic acid] | remarkable increase | – | – | –
polyethylene glycol monolaurate | – | not detected | 0.9 ×10^4 | –
sorbitan monolaurate | remarkable increase | not detected | – | –
sorbitan monooleate | remarkable increase | – | – | –
